Assay results reported in EP0705591A2, “Cyclic amidocarboxy surfactants, synthesis and use thereof” (STEPAN COMPANY, priority 1989, dated 1991).

Columns and labels:
Ross-Miles Foaming test = format: physicochemical; conditions: tap water; active level of 0.1%
From the text: (§1) Standard Ross-Miles Foaming and Draves Wetting tests were preformed on various fatty phthalamates with the results set forth in Table 1 below. In all tests, an active level of 0.1% was utilized.

Draves Wetting test = format: physicochemical; conditions: tap water; active level of 0.1%
From the text: as §1

[1] = Bleach (chlorine ion) stability; format: physicochemical; conditions: for formulation clarity / foaming characteristics: 2.0% actives surfactant, 4.0% actives NaOCl; for formulation clarity: 1.0% NaOH, 90°C water bath about 5 hours; for foaming characteristics: after about 5 hours at 90°C
From the text: Select N-alkyl and N,N-dialkyl phthalamates were incorporated into a standard test formulation containing a common bleach. […] The standard formulation comprised 4.0% actives of NaOCl; 0.25% actives NaCl; 1.0% actives NaOH (50%); 2.0% actives surfactant and Q.S. 100% deionized water. 1. DOWFAX^R-2A1 is Dow Chemical Company's registered trademark for sodium branched C₁₂ diphenyloxide disulfonate. 2. MAKON^R- 10 is Stepan Company's registered trademark for a nonylphenol polyethoxylate.
The various formulations were individually placed in tightly capped jars and subjected to a 90°C water bath for about 5 hours and then observed for formulation clarity and foaming characteristics. Each sample was run in duplicate.

[2] = Particulate material suspension; format: physicochemical
Method: In this test, potassium N-octadecylphthalamate was utilized as a suspending agent in a typical shampoo base with known particulate anti-dandruff materials, zinc pyrithione and coal tar. Particulate (about 500 mesh) zinc pyrithione and particulate (about 350 to 400 mesh) coal tar were suspended in shampoo base formulations and stored at room temperature, at about 1.6°C and at about 43.3°C.
About 2 percent potassium octadecylphthalamate was incorporated with about 50 to 70 percent particulate coal (average size about 200 mesh) and about 30 to 50 percent water at ambient temperature.

[3] = Emulsion stability test (modified, xylene/water); format: physicochemical; conditions: 0.5g surfactant, 90 mL deionized water, 5.0 mL xylene; second rocking sequence
Method: In order to obtain reproducible results, an emulsion stability test, modified from the standard used in the art for testing surfactants was developed. In the modified procedure, 0.5g of a select surfactant (instead of 1g) was dissolved in 90 mL of deionized water in a graduated cylinder containing 5.0 mL of xylene, which was then sealed and rocked between a vertical/horizontal position for 30 cycles, allowed to settle for about 5 to 10 minutes and subjected to the same rocking cycle with the results of the second sequence recorded (instead of the first sequence).

[4] = Crude oil emulsification/dispersion and pH reversibility; format: physicochemical
Method: Sodium N-dodecylphthalamate, sodium N-cocophthalamate, sodium N-isodecyloxypropylphthalamate and sodium N-isododecyloxypropylphthalamate, along with a control (tap water only), were evaluated as emulsifying and/or dispersing and/or suspending agents for a given, heavy (viscous) crude petroleum oil (Dome crude oil, David Field, California) in different water samples, one having a hardness (expressed as CaCO₃) of 150 ppm, another having a hardness of 500 ppm, along with a synthetic sea water (NaCl-containing tap water, 150 ppm). In addition, various admixtures of sodium N-dodecylphthalamate and lauryl amine oxide were similarly evaluated with the above petroleum crude oil and synthetic sea water for synergistic emulsification characteristics.
The respective surfactants were prepared as aqueous solutions with the various water samples at a concentration of about 0.1 percent actives. Measured samples (50 mL) of the surfactant solutions were placed in 100 mL graduated cylinders, 2 drops of the crude oil added, the cylinders stoppered and relatively vigorously shaken manually for about 10 to 20 seconds. The degree of emulsification/dispersion, suspension was noted and recorded The data is set for in Table VIII below.
At relatively high pH values (i.e., above about 7) emulsification of the crude oil readily occurred and at relatively how pH values (i.e., below about 5) de-emulsification of the crude oil readily occurred. A control was prepared from a sample of the 150 ppm hardness water without surfactant but with 2 drops of the above crude oil.
The foregoing cycle between relatively high pH and relatively low pH was repeated an additional three times, with essentially identical emulsification/de-emulsification results. During a low (4.9) pH de-emulsification cycle, separated crude oil was removed, by decantation and a pH of the remaining (used) phthalamic solution was adjusted to about 13.5 and fresh crude oil added. […] Upon addition of additional fresh sodium N-dodecylphthalamate, the emulsion re-formed.

[5] = Thermal stability followed by IR spectroscopy; format: physicochemical; conditions: for Conversion to the N-dodecylphthalimide: neat (100% actives), about 100°C
Method: Thermal stability studies were conducted with neat (100% actives) sample of ammonium N-dodecylphthalamate mulled on sodium chloride plates. […]

[6] = Solubility in various solvents (vehicles); format: physicochemical; design: key: I - INSOLUBLE; S - SOLUBLE; conditions: 1% actives
Method: (§2) Sodium N-octadecylphthalamate, 1% actives, was evaluated for solubility in various solvents and under cold storage (4°C) and freeze-thaw conditions.

[7] = Cold storage and freeze-thaw stability of solutions; format: physicochemical; design: key: P - PASS; conditions: 1% actives; for STABILITY FREEZE THAW: 3 freezing/thawing cycles; for STABILITY COLD STORAGE: 24 hours at 4 °C
Method: as §2

[8] = Emulsification in foodstuffs; conditions: about 1% by weight, substituted for egg yolk
Method: Sodium N-octadecylphthalamate was added to a standard cup-cake recipe at actives levels of 0% (control), 1%, 2%, 3%, 4%, and 5%. The N-octadecylphthalamate was admixed into a typical batter as a partial replacement for the shortening, margarine or butter called for in the recipe, baked at a uniform temperature (about 176°C) and time (about 25 minutes). […] A mayonnaise formulation containing about 1% by weight, based on a 100% total weight of formulation, of sodium N-octadecylphthalamate was prepared, with the N-octadecylphthalamate being substituted for egg yolk in a given recipe. […] A dog food was prepared by admixing about 200g of "Generic" beef-flavored dog food with 3g of 100% actives sodium N-octadecylphthalamate. Samples of this dog food were exposed to various temperatures (i.e., 0°C, 43°C and 50°C).

[9] = Caustic stability (reflux with NaOH); format: physicochemical; conditions: for ES*(mL/sec) (Emulsion Stability): reflux with an equivalent of NaOH
Method: In order to determine caustic stability of the phthalamates, 5g of octylphthalamic acid was dissolved in 450 mL of water containing an equivalent of NaOH. This mixture was heated at reflux for about 24 hours and five separate 90mL samples were withdrawn at 0 hours, 1 hour, 2 hours, 16.5 hours and 23.7 hours. The resulting individual samples were acidified and the sodium N-octylphthalamic acid was isolated and analyzed (filtered, dried, weighted and m.p. and neutralization equivalents were obtained).

[10] = 0.1% actives in 50 mL of 150 ppm hardness water

CC(C)CCCCCCCCCOCCCNC(=O)c1ccccc1C(=O)[O-].[Na+] [sodium isododecyloxypropylphthalamate, Sodium N-Isododecyloxypropylphthalamate] showed a foam height (Ross-Miles Foaming test) of 5.5 cm and a wetting time (Draves Wetting test) of 4.5 s.

With CCCCCCCCCCCCN(C)C(=O)c1ccccc1C(=O)[O-].[Na+] [sodium N-methyl-N-dodecylphthalamate, Sodium N-Dodecyl-N-methylphthalamate] the formulation clarity [1] was “clear yellow throughout the test”, the foaming characteristics [1] was “unstabile” and the bleach stability ([1]; conclusion from the 90°C bleach test) was “good bleach stability”.

In the case of CCCCCCCCCCCCCCCCCCNC(=O)c1ccccc1C(=O)[O-].[K+] [potassium N-octadecylphthalamate], the “suspension of particulate coal in water” value ([2]; about 2 percent with about 50 to 70 percent coal (about 200 mesh), ambient temperature) is reported as “free flowing, substantially homogeneous suspension”, the “stability of zinc pyrithione suspension in shampoo base” value ([2]; after 5 days at 43.3°C) is reported as “phase separation” and the “stability of coal tar suspension in shampoo base” value ([2]; after 5 days at room temperature, at 1.6°C and at 43.3°C) is reported as “excellent stability”.

For CCCCCCCCCCCCNC(=O)c1ccccc1C(=O)[O-].[Na+] [Sodium N-dodecylphthalamate, Sodium N-Dodecylphthalamate], the “Emulsion Break Rate” value [3] was 0.068 mL/s, the “pH values at which de-emulsification of the crude oil readily occurred” value [4, 10] was “below 5” and the “pH values at which emulsification of the crude oil readily occurred” value [4, 10] was “above 7”. The “emulsification of crude oil” value ([4]; 0.1% actives, 150 ppm hardness water, pH of 8.5) was “the oil readily emulsified”, the “emulsification of crude oil” value ([4]; pH dropped to about 3.5) was “the emulsion broke” and the “emulsification of crude oil” value ([4]; pH dropped to about 5.2) was “a slight flocculation noted”. For the same compound, the “emulsification of crude oil” value ([4]; pH dropped to about 7.0) was “without noticeable de-emulsification”, the “emulsification of crude oil” value ([4]; pH dropped with 1N HCl to about 2.6) was “the emulsion broke, almost instantly, with floccing” and the “emulsification of crude oil” value ([4]; pH raised with 1N NaOH to about 13.4) was “an emulsified solution was noted”. For the same compound, the “emulsification of crude oil” value ([4]; used solution, pH about 13.5, fresh crude oil added) was “very stabile emulsion was quickly formed”, the formulation clarity [1] was “initially clear yellow but became cloudy and exhibited phase separation” and the thermal stability ([5]; 120°C) was “stabile”.

With CCCCCCCCCCCCCCCCCCNC(=O)c1ccccc1C(=O)[O-].[Na+] [Sodium N-octadecylphthalamate, Sodium N-Octadecylphthalamate] the “APPEARANCE 24 HOURS @ RT^0 AFTER HEAT” value ([6]; vehicle AMMONYX^R LO) was “S”, the “APPEARANCE 25^0C” value ([6]; vehicle AMMONYX^R LO) was “S” and the “APPEARANCE 50^0C” value ([6]; vehicle AMMONYX^R LO) was “S”. The “APPEARANCE 24 HOURS @ RT^0 AFTER HEAT” value ([6]; vehicle AMPHOSOL^R) was “S”, the “APPEARANCE 25^0C” value ([6]; vehicle AMPHOSOL^R) was “I” and the “APPEARANCE 50^0C” value ([6]; vehicle AMPHOSOL^R) was “S”. For the same compound, the “APPEARANCE 24 HOURS @ RT^0 AFTER HEAT” value ([6]; vehicle MAKON^R 10) was “S”, the “APPEARANCE 25^0C” value ([6]; vehicle MAKON^R 10) was “I” and the “APPEARANCE 50^0C” value ([6]; vehicle MAKON^R 10) was “I”. The “APPEARANCE 24 HOURS @ RT^0 AFTER HEAT” value ([6]; vehicle NINOL^R 40-CO) was “S”, the “APPEARANCE 25^0C” value ([6]; vehicle NINOL^R 40-CO) was “I” and the “APPEARANCE 50^0C” value ([6]; vehicle NINOL^R 40-CO) was “S”. The “APPEARANCE 24 HOURS @ RT^0 AFTER HEAT” value ([6]; vehicle STEPANATE^R) was “I”, the “APPEARANCE 25^0C” value ([6]; vehicle STEPANATE^R) was “I” and the “APPEARANCE 50^0C” value ([6]; vehicle STEPANATE^R) was “I”. The “STABILITY FREEZE THAW” value ([7]; vehicle AMMONYX^R LO) was “P”, the “STABILITY COLD STORAGE” value ([7]; vehicle AMMONYX^R LO) was “P” and the “STABILITY FREEZE THAW” value ([7]; vehicle AMPHOSOL^R) was “P”. The “STABILITY COLD STORAGE” value ([7]; vehicle AMPHOSOL^R) was “P”, the “STABILITY FREEZE THAW” value ([7]; vehicle MAKON^R 10) was “P” and the “STABILITY COLD STORAGE” value ([7]; vehicle MAKON^R 10) was “P”. For the same compound, the “STABILITY FREEZE THAW” value ([7]; vehicle NINOL^R 40-CO) was “P”, the “STABILITY COLD STORAGE” value ([7]; vehicle NINOL^R 40-CO) was “P” and the imidation ([5]; 3.5 hours at 150°C) was “only a very small degree of imidation”. For the same compound, the imidation ([5]; 64 hours at 150°C) was “significant formation of N-octadecylphthalimide” and the mayonnaise emulsion stability [8] was “excellent stability”.

With CCCCCCCCCCCCCCCCNC(=O)c1ccccc1C(=O)[O-].[Na+] [Sodium N-hexadecylphthalamate] the “Emulsion Break Rate” value [3] was 0.102 mL/s.

In the case of CCCCCCCCCCCCCCNC(=O)c1ccccc1C(=O)[O-].[Na+] [Sodium N-tetradecylphthalamate], the “Emulsion Break Rate” value [3] is reported as 0.085 mL/s.

In the case of CCCCCCCCCCCCNC(=O)c1ccccc1C(=O)O.N [ammonium N-dodecylphthalamate, Ammonium N-Dodecylphthalamate], the “Conversion to the N-dodecylphthalimide” value ([5]; 10 minutes) is reported as “very apparent” and the “Conversion to the N-dodecylphthalimide” value ([5]; 20 minutes) is reported as “almost total conversion”.

With CCCCCCCCCCNC(=O)c1ccccc1C(=O)O.OCCN(CCO)CCO [Triethanolammonium N-decylphthalamate] the “Emulsion Break Rate” value [3] was 0.046 mL/s.

With CCCCCCCCCCNC(=O)c1ccccc1C(=O)[O-].[Na+] [Sodium N-decylphthalamate] the “Emulsion Break Rate” value [3] was 0.034 mL/s.

In the case of sodium N,N-dicocophthalamate, the formulation clarity [1] is reported as “poor solubility, with phase separation” and the foaming characteristics [1] is reported as “no pre-bath or post-bath foam”.

In the case of CCCCCCCCCCCCNC(=O)c1ccccc1C(=O)O.OCCN(CCO)CCO [Triethanolammonium N-dodeylphthalamate], the “Emulsion Break Rate” value [3] is reported as 0.039 mL/s.

For CCCCCCCCNC(=O)c1ccccc1C(=O)[O-].[Na+] [Sodium N-octylphthalamate], the “Emulsion Break Rate” value [3] was 0.111 mL/s, the “pH at which stable” value ([9]; caustic environment, reflux about 24 hours) was “at least 10” and the “ES*(mL/sec) (Emulsion Stability)” value ([9]; sample at 0 hr) was 0.0252 mL/s. For the same compound, the “ES*(mL/sec) (Emulsion Stability)” value ([9]; sample at 1 hr) was 0.0325 mL/s, the “ES*(mL/sec) (Emulsion Stability)” value ([9]; sample at 2 hr) was 0.0400 mL/s and the “ES*(mL/sec) (Emulsion Stability)” value ([9]; sample at 16.5 hr) was 0.0690 mL/s. The “ES*(mL/sec) (Emulsion Stability)” value ([9]; sample at 23.7 hr) was 0.108 mL/s.

In the case of CCCCCCCCNC(=O)c1ccccc1C(=O)O.OCCN(CCO)CCO [Triethanolammonium N-octylphthalamate], the “Emulsion Break Rate” value [3] is reported as 0.043 mL/s.
